24 molecules from patent US11147812B2, “Tyrosine analogues derivatives as Rho-kinase inhibitors” (Chiesi Farmaceutici S.p.A., priority 2017, dated 2021) can be followed below.

A word on the Ki: it is a measure of affinity in units of concentration, obtained from inhibition or displacement. A lower Ki goes with tighter binding.

The target of one test is Rho kinase 1 (ROCK1) (Homo sapiens, UniProt Q13464). Kind of test: In vitro Rho kinase inhibitory activity assay (ADP-Glo), ROCK1. It counts as biochemical. The note with it: 10 μM ATP, 25° C., Ki by Cheng-Prusoff. As to the method:
(§1) The effectiveness of compounds of the present invention to inhibit Rho kinase activity can be determined in a 10 μl assay containing 40 mM Tris pH7.5, 20 mM MgCl2 0.1 mg/ml BSA, 50 μM DTT and 2.5 μM peptide substrate (Myelin Basic Protein) using an ADP-Glo kit (Promega). Compounds were dissolved in DMSO such that the final concentration of DMSO was 1% in the assay. All reactions/incubations are performed at 25° C. Compound (2 ul) and either Rho kinase 1 or 2 (4 μl) were mixed and incubated for 30 mins. Reactions were initiated by addition of ATP (4 μl) such that the final concentration of ATP in the assay was 10 μM. After a 1 hour incubation 10 μl of ADP-Glo Reagent was added and after a further 45 minute incubation 20 ul of Kinase Detection Buffer was added and the mixture incubated for a further 30 minutes. The luminescent signal was measured on a luminometer. […] Compounds were tested in dose-response format and the inhibition of kinase activity was calculated at each concentration of compound. To determine the IC50 (concentration of compound required to inhibit 50% of the enzyme activity) data were fit to a plot of % inhibition vs Log10 compound concentration using a sigmoidal fit with a variable slope and fixing the maximum to 100% and the minimum to 0%. To determine the Ki values the Cheng-Prusoff equation was utilized (Ki=IC50/(1+[S]/Km)
A general note: ADP-Glo turns the ADP formed in a reaction into a luminescent signal.

In the next test the target is Rho kinase 2 (ROCK2) (Homo sapiens, UniProt O75116). Kind of test: In vitro Rho kinase inhibitory activity assay (ADP-Glo), ROCK2. It counts as biochemical. The note with it: 10 μM ATP, 25° C., Ki by Cheng-Prusoff. As to the method: as §1
Sequence of Rho kinase 2 (ROCK2) (O75116 whole entry): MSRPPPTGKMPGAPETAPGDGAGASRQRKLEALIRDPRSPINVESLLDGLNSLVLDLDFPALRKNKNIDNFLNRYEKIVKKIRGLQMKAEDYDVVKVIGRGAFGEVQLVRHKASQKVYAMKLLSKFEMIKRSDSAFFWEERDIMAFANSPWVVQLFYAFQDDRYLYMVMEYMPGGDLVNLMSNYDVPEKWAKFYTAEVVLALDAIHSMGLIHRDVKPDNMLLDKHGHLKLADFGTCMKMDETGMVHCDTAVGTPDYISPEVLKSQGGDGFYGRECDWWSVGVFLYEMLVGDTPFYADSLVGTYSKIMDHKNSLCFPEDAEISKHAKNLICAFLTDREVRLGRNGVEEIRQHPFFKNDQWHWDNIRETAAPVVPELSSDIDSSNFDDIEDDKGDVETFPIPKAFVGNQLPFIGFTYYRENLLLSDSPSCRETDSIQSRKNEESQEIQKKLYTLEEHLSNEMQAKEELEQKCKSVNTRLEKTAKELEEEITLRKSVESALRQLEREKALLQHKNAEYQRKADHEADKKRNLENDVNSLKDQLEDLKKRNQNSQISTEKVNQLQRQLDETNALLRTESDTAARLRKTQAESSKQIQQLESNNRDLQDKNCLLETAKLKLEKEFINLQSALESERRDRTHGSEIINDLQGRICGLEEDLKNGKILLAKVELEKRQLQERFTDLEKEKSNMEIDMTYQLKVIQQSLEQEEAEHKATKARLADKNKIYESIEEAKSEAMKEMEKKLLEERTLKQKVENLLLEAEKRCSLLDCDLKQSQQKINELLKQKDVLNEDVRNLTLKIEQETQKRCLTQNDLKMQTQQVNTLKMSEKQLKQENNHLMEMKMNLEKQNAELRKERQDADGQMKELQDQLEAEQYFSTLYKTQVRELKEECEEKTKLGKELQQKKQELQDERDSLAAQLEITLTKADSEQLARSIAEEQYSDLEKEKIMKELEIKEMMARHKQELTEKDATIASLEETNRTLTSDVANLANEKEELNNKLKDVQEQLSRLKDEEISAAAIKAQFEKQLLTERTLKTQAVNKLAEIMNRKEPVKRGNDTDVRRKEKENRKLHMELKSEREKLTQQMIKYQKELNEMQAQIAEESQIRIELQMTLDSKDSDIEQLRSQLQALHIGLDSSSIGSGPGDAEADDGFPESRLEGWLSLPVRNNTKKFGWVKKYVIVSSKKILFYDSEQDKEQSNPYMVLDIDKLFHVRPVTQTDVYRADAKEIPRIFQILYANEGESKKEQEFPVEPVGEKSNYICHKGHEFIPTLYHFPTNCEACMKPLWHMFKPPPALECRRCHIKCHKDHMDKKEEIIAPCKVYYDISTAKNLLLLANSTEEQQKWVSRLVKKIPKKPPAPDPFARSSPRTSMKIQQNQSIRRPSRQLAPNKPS

Sequence of Rho kinase 1 (ROCK1) (Q13464 whole entry): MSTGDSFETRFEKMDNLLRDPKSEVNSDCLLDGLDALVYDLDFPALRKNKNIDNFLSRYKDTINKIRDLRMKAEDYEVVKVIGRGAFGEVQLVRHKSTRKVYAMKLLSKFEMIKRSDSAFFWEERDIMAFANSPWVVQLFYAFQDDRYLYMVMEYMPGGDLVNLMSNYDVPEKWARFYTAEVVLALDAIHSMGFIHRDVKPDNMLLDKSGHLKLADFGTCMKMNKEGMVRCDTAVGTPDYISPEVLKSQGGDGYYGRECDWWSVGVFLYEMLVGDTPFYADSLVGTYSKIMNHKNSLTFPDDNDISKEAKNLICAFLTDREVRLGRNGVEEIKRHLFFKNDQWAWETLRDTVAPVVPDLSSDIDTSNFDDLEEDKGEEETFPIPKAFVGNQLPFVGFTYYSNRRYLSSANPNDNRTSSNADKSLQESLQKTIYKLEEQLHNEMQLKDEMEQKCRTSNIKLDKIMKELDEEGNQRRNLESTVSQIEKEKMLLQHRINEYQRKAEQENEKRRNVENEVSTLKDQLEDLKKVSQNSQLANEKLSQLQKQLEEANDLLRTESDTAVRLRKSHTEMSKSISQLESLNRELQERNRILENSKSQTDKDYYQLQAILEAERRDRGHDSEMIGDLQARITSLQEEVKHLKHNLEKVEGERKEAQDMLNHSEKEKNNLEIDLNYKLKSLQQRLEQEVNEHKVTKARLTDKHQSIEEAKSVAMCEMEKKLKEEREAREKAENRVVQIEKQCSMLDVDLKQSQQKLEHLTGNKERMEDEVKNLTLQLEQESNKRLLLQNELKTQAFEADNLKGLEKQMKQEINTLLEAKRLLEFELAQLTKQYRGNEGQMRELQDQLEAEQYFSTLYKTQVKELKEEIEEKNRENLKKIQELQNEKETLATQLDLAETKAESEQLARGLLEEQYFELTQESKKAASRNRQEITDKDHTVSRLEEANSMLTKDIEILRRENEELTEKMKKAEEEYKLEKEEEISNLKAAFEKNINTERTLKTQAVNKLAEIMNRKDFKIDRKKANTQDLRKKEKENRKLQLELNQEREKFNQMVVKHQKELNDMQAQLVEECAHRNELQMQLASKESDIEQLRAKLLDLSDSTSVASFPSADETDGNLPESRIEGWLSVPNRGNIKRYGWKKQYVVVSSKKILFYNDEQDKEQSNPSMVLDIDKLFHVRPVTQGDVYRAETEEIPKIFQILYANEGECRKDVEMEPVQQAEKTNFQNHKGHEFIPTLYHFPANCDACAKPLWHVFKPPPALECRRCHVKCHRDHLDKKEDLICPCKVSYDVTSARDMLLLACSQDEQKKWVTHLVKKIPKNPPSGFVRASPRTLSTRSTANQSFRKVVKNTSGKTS

As to `CN(C)CCCNC(=O)C(CN)Cc1ccc(Oc2ccnc3[nH]cc(C#N)c23)cc1` (stereo not drawn) [Example 44, 3-amino-2-(4-((3-cyano-1H-pyrrolo[2,3-b]pyridin-4-yl)oxy)benzyl)-N-(3-(dimethylamino)propyl)propanamide], the Ki at Rho kinase 1 (ROCK1) and on Rho kinase 2 (ROCK2) was below 3 nM in each case.

With `CN(C)CCCN1CNCC(Cc2ccc(Oc3ccnc4[nH]cc(C#N)c34)cc2)C1=O` (stereo not drawn) [Example 45, 4-(4-((1-(3-(dimethylamino)propyl)-6-oxohexahydropyrimidin-5-yl)methyl)phenoxy)-1H-pyrrolo[2,3-b]pyridine-3-carbonitrile], the Ki on Rho kinase 1 (ROCK1) and on Rho kinase 2 (ROCK2) was 3 to 30 nM throughout.

As to `Cc1c[nH]c2nccc(Oc3ccc([C@H]4CNC[C@@H]4C(=O)NCc4ccccc4)cc3)c12` (single isomer, unassigned) [Example 17B], the Ki on Rho kinase 1 (ROCK1) and at Rho kinase 2 (ROCK2) was 3 to 30 nM each time.

Consider `Cc1c[nH]c2nccc(Oc3ccc([C@H]4CCN[C@@H]4C(=O)NCCCN(C)C)cc3)c12` (racemic) [Example 26, rac-(2R,3S)-N-(3-(dimethylamino)propyl)-3-(4-((3-methyl-1H-pyrrolo[2,3-b]pyridin-4-yl)oxy)phenyl)pyrrolidine-2-carboxamide], for which the Ki at Rho kinase 1 (ROCK1) and at Rho kinase 2 (ROCK2) was 3 to 30 nM in each case.

`NCC(Cc1ccc(Oc2ccnc3[nH]ccc23)cc1)C(=O)N1CCN(Cc2ccccc2)CC1` (stereo not drawn) [Example 32, 2-(4-((1H-pyrrolo[2,3-b]pyridin-4-yl)oxy)benzyl)-3-amino-1-(4-benzylpiperazin-1-yl)propan-1-one]: the Ki at Rho kinase 1 (ROCK1) and at Rho kinase 2 (ROCK2) was below 3 nM each time.

Turning to `CN1CCC(NC(=O)C(N)c2ccc(Oc3ccnc4[nH]ccc34)cc2)CC1` (stereo not drawn) [Example 14, 2-(4-((1H-pyrrolo[2,3-b]pyridin-4-yl)oxy)phenyl)-2-amino-N-(1-methylpiperidin-4-yl)acetamide], the Ki on Rho kinase 1 (ROCK1) and at Rho kinase 2 (ROCK2) was above 30 nM throughout.

For `Cc1c[nH]c2nccc(Oc3ccc(CC(CN)C(=O)NC4CCCCC4)cc3)c12` (stereo not drawn) [Example 31, 3-amino-N-cyclohexyl-2-(4-((3-methyl-1H-pyrrolo[2,3-b]pyridin-4-yl)oxy)benzyl)propanamide], the Ki on Rho kinase 1 (ROCK1) and on Rho kinase 2 (ROCK2) was below 3 nM in each case.

Turning to `Cc1c[nH]c2nccc(Oc3ccc(CC(CN)C(=O)N4CCN(C5CC5)CC4)cc3)c12` (stereo not drawn) [Example 2, 3-amino-1-(4-cyclopropylpiperazin-1-yl)-2-(4-((3-methyl-1H-pyrrolo[2,3-b]pyridin-4-yl)oxy)benzyl)propan-1-one], the Ki on Rho kinase 1 (ROCK1) and at Rho kinase 2 (ROCK2) was below 3 nM each time.

In the case of `NCC(Cc1ccc(Oc2ccnc3[nH]ccc23)cc1)C(=O)NC1CCCCC1` (stereo not drawn) [Example 33, 2-(4-((1H-pyrrolo[2,3-b]pyridin-4-yl)oxy)benzyl)-3-amino-N-cyclohexylpropanamide], the Ki at Rho kinase 1 (ROCK1) and on Rho kinase 2 (ROCK2) was 3 to 30 nM in each case.

For `Cc1c[nH]c2nccc(Oc3ccc(CC(CN(C)C)C(=O)N4CCN(Cc5ccccc5)CC4)cc3)c12` (stereo not drawn) [Example 37, 1-(4-benzylpiperazin-1-yl)-3-(dimethylamino)-2-(4-((3-methyl-1H-pyrrolo[2,3-b]pyridin-4-yl)oxy)benzyl)propan-1-one], the Ki at Rho kinase 1 (ROCK1) and at Rho kinase 2 (ROCK2) was below 3 nM each time.

Consider `Cc1c[nH]c2nccc(Oc3ccc(C(N)CC(=O)N4CCN(Cc5ccccc5)CC4)cc3)c12` (stereo not drawn) [Example 7, 3-amino-1-(4-benzylpiperazin-1-yl)-3-(4-((3-methyl-1H-pyrrolo[2,3-b]pyridin-4-yl)oxy)phenyl)propan-1-one], for which the Ki on Rho kinase 1 (ROCK1) and on Rho kinase 2 (ROCK2) was below 3 nM throughout.

As for `Cc1c[nH]c2nccc(Oc3ccc([C@H]4CCN[C@@H]4C(=O)NC4CCOCC4)cc3)c12` (racemic) [Example 24, rac-(2S,3R)-3-(4-((3-methyl-1H-pyrrolo[2,3-b]pyridin-4-yl)oxy)phenyl)-N-(tetrahydro-2H-pyran-4-yl)pyrrolidine-2-carboxamide], the Ki on Rho kinase 1 (ROCK1) and at Rho kinase 2 (ROCK2) was 3 to 30 nM in each case.

Take `NC(C(=O)NC1CCCCC1)c1ccc(Oc2ccnc3[nH]ccc23)cc1` (stereo not drawn) [Example 8, 2-(4-((1H-pyrrolo[2,3-b]pyridin-4-yl)oxy)phenyl)-2-amino-N-cyclohexylacetamide]: the Ki on Rho kinase 1 (ROCK1) and at Rho kinase 2 (ROCK2) was above 30 nM in each case.

Turning to `Cc1c[nH]c2nccc(Oc3ccc(CC(CN)C(=O)N4CCN(Cc5ccccn5)CC4)cc3F)c12` (stereo not drawn) [Example 5, 3-amino-2-(3-fluoro-4-((3-methyl-1H-pyrrolo[2,3-b]pyridin-4-yl)oxy)benzyl)-1-(4-(pyridin-2-ylmethyl)piperazin-1-yl)propan-1-one], the Ki on Rho kinase 1 (ROCK1) and at Rho kinase 2 (ROCK2) was below 3 nM each time.

As for `COCCCN1CNCC(Cc2ccc(Oc3ccnc4[nH]cc(C)c34)c(F)c2)C1=O` (stereo not drawn) [Example 42, 5-(3-fluoro-4-((3-methyl-1H-pyrrolo[2,3-b]pyridin-4-yl)oxy)benzyl)-3-(3-methoxypropyl)tetrahydropyrimidin-4(1H)-one], the Ki on Rho kinase 1 (ROCK1) is above 30 nM; on Rho kinase 2 (ROCK2) it was 3 to 30 nM.

`Cc1c[nH]c2nccc(Oc3ccc(CC(CN)C(=O)N4CCN(Cc5ccccc5)CC4)cc3F)c12` (stereo not drawn) [Example 29, 3-amino-1-(4-benzylpiperazin-1-yl)-2-(3-fluoro-4-((3-methyl-1H-pyrrolo[2,3-b]pyridin-4-yl)oxy)benzyl)propan-1-one]: the Ki at Rho kinase 1 (ROCK1) and at Rho kinase 2 (ROCK2) was below 3 nM each time.

`CN(C)C(=O)C(N)c1ccc(Oc2ccnc3[nH]ccc23)cc1` (stereo not drawn) [Example 12, 2-(4-((1H-pyrrolo[2,3-b]pyridin-4-yl)oxy)phenyl)-2-amino-N,N-dimethylacetamide]: the Ki at Rho kinase 1 (ROCK1) and on Rho kinase 2 (ROCK2) was above 30 nM in each case.

With `Cc1c[nH]c2nccc(Oc3ccc(C(N)CC(=O)N4CCN(Cc5ccccc5)CC4)cc3)c12` (single isomer, unassigned) [Example 7B, 3-amino-1-(4-benzylpiperazin-1-yl)-3-(4-((3-methyl-1H-pyrrolo[2,3-b]pyridin-4-yl)oxy)phenyl)propan-1-one], the Ki at Rho kinase 1 (ROCK1) and at Rho kinase 2 (ROCK2) was 3 to 30 nM in each case.

In the case of `Cc1c[nH]c2nccc(Oc3ccc([C@H]4CNC[C@@H]4C(=O)N(C)Cc4ccccc4)cc3)c12` (racemic) [Example 18, rac-(3R,4S)-N-benzyl-N-methyl-4-(4-((3-methyl-1H-pyrrolo[2,3-b]pyridin-4-yl)oxy)phenyl)pyrrolidine-3-carboxamide], the values for the Ki on Rho kinase 1 (ROCK1) and at Rho kinase 2 (ROCK2) were 3 to 30 nM and below 3 nM, respectively.

As to `Cc1c[nH]c2nccc(Oc3ccc(CC(CN)C(=O)NC4CCN(C)CC4)cc3F)c12` (stereo not drawn) [Example 3, 3-amino-2-(3-fluoro-4-((3-methyl-1H-pyrrolo[2,3-b]pyridin-4-yl)oxy)benzyl)-N-(1-methylpiperidin-4-yl)propanamide], the Ki on Rho kinase 1 (ROCK1) and on Rho kinase 2 (ROCK2) was below 3 nM in each case.

With `Cc1c[nH]c2nccc(Oc3ccc(C4CC(=O)N(CCc5ccncc5)CN4)cc3)c12` (stereo not drawn) [Example 40, 6-(4-((3-methyl-1H-pyrrolo[2,3-b]pyridin-4-yl)oxy)phenyl)-3-(2-(pyridin-4-yl)ethyl)tetrahydropyrimidin-4(1H)-one], the Ki on Rho kinase 1 (ROCK1) and on Rho kinase 2 (ROCK2) was above 30 nM throughout.

As for `Cc1c[nH]c2nccc(Oc3ccc(CC(CN)C(=O)N4CCN(Cc5ccccn5)CC4)cc3F)c12` (single isomer, unassigned) [Example 5A, 3-amino-2-(3-fluoro-4-((3-methyl-1H-pyrrolo[2,3-b]pyridin-4-yl)oxy)benzyl)-1-(4-(pyridin-2-ylmethyl)piperazin-1-yl)propan-1-one], the inhibition constant (Ki) at Rho kinase 1 (ROCK1) and at Rho kinase 2 (ROCK2) was 3 to 30 nM in each case.

Regarding `NCC(Cc1ccc(Oc2ccnc3[nH]ccc23)cc1)C(=O)N1CCN(Cc2ccccc2)CC1` (single isomer, unassigned) [Example 32B, 2-(4-((1H-pyrrolo[2,3-b]pyridin-4-yl)oxy)benzyl)-3-amino-1-(4-benzylpiperazin-1-yl)propan-1-one], the Ki at Rho kinase 1 (ROCK1) and on Rho kinase 2 (ROCK2) was below 3 nM each time.

In the case of `NCC(Cc1ccc(Oc2ccnc3[nH]ccc23)cc1)C(=O)N1CCN(Cc2ccccc2)CC1` (single isomer, unassigned) [Example 32A, 2-(4-((1H-pyrrolo[2,3-b]pyridin-4-yl)oxy)benzyl)-3-amino-1-(4-benzylpiperazin-1-yl)propan-1-one], the Ki on Rho kinase 1 (ROCK1) and on Rho kinase 2 (ROCK2) was 3 to 30 nM throughout.
